Assay results reported in patent US7001997B2, “Proteins, their production and use” (Takeda Chemical Industries, Ltd., priority 1996, dated 2006).

Experiments:
[1] = target: T1, human liver-derived metalloprotease (Homo sapiens, UniProt Q99542); test: PER assay of casein hydrolyzing activity in culture supernatant of COS-7 cells transfected with pTB1921; format: biochemical; set-up: expressed in transfected cells; host or cells: COS-7; conditions: supernatant activated with 1 mM aminophenyl-mercuric acetate, 37° C., 30 minutes
T1 sequence (Q99542 98-508): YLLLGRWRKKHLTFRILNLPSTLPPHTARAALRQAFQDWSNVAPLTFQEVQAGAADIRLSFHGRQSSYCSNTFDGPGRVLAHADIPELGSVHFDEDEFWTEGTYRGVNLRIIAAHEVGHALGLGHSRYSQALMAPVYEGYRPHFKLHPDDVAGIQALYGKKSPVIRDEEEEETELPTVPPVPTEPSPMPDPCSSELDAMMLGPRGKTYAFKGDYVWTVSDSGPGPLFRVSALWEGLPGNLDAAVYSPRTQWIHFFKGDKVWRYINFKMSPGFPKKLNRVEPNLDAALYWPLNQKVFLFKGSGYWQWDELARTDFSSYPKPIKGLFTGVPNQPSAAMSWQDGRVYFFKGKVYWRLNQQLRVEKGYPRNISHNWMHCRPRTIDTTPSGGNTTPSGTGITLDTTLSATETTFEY
Experimental: Add aminophenyl mercuric acetate (final concentration 1 mM) to the protein of the present invention and react at 37° C. for 30 minutes. Electrophorese the reaction mixture on SDS-polyacrylamide gels (non-reducing) in accordance with PER (F. T. Lundy et al., Electrophoresis, 16, 43, 1995). Then, saturate the polyacrylamide gels with the substrate and react in the reaction medium at 37° C. for 16 hours. After the reaction, stain the gels with CBB to detect a proteolytic activity.
The pTB1921 obtained in Example 1, which had been inserted into the expression plasmied pCMV·SPORT (GIBCO/BRL), was used for expression in animal cells. The COS-7 cell line (purchased from the Institute for Fermentation, Osaka) was cultured in serum-containing DMEM and subcultured on the day before introduction of the gene. When the culture became 50% confluent, the COS-7 cells were washed with serum-free DMEM, and 2.5 ml of serum-free medium was added. […]
To the cell culture supernatant obtained in Example 2 was added aminophenyl-mercuric acetate (final concentration 1 mM) and the reaction was carried out at 37° C. for 30 minutes. The activity was then determined by the PER assay (F. T. Lundy et al., Electrophoresis, 16, 43, 1995). As a result, casein hydrolyzing activity which was not found in the mock culture supernatant was detected in the culture supernatant of COS-7 cells transfected with pTB1921.

[2] = target: T1, human liver-derived metalloprotease; test: Inhibitor screening system with fluorogenic substrate DNP-Pro-Cha-Abu-Cys(Me)-His-Ala-Lys(N-Me-Abz)-NH2; format: biochemical; set-up: the objective metalloprotease of about 46 kDa was eluted with buffer E (QIAexpress System); 6xHis (vector-encoded N-terminal tag of pQE30); made in house; host or cells: Escherichia coli JM109/pNHMB; conditions: 10 μM substrate, 37° C., 16 hours, excitation 365 nm, emission 460 nm; read-out: 50% inhibitory concentration of metalloprotease activity
Experimental: A 96-well plate (Fluoro B Plate, Dainippon Pharmaceutical) was filled in with 30 μL of buffer (0.25 M Tris-HCl (pH 8.0), 5 mM CaCl2, 100 mM NaCl, 10 μM ZnCl2) and 20 μL of the recombinant human liver-derived metalloprotease (2.4 mg/ml) obtained in Example 5. […] When actinonin (Peptide Institute), a metalloprotease inhibitor, was added at a varying concentration to this reaction mixture, it inhibited metalloprotease activity with a 50% inhibitory concentration of about 10 μM. It was, therefore, clear that this assay system can be used for the screening of inhibitors of the human liver-derived metalloprotease.

Row | inhibition of casein hydrolyzing activity [1] | IC50 [2] [µM] | SMILES
1 | inhibited | – | c1cnc2c(c1)ccc1cccnc12 [o-phenanthroline]
2 | – | ~10 | CCCCC[C@H](CC(=O)NO)C(=O)N[C@H](C(=O)N1CCC[C@H]1CO)C(C)C [actinonin]
